Results taken from patent US7157083B2, “Compositions and methods for treating retroviral infections” (priority 1998, dated 2007).
Read-outs that look alike come from different tables or passages of the source.

Key:
[1] = tested on: ROJO (low passage HIV-1); assay: Study 4 sensitization, Turpin and standard macrophages: RT activity after Rojo challenge; type: cell-based; conditions: Rojo Sensitized
Protocol: (§1) Percent virus control (% VC) in the following tables is the mean RT activity (cpm) as a percentage of a virus control. Percent cell control (% CC) is the mean XTT absorbance as a percentage of a cell control.
(§2) The macrophage plates were then washed with HBSS multiple times. Fresh mixed pha blast PBMCs (5×10e4/well) were placed on the macrophage cells, allowed to incubate for 72 hours and then harvested and reset in a fresh 96 well plate. The PBMCs were then challenged overnight with the respective virus (IIIB or Rojo) at a standard MOI for that virus. The PBMCs were 5× in plate spin washed with DPBS, incubated 24 hours, at which time 5×10e4 fresh pha blast PBMCs/well were added. The culture was incubated an additional 6 days and then assayed for RT activity.
(§3) Where viability corrections were conducted, they were performed by dividing the RT CPM value by the toxicity absorbance in order to compensate for well to well variations noted in the cell titer toxicity noted.

[2] = tested on: HIV-1; conditions: Assay #7
Protocol: Reverse transcriptase (RT) activity was measured in cell-free supernatants. Tritiated thymidine triphosphate (NEN) (TTP) was resuspended in distilled H2O at 5 Cl/mL. Poly rA and oligo dT were prepared as a stock solution which was kept at −20° C. The RT reaction buffer was prepared fresh on a daily basis and consists of 125 μL 1.0 M EGTA, 125 μL d H2O, 110 μL 10% SDS, 50 μL 1.0 M Tris (pH 7.4), 50 μL 1.0 M DTT, and 40μ1.0 M MgCl2. These three solutions were mixed together in a ratio of 2 parts TTP, 1 part poly rA:oligo dT, and 1 part reaction buffer. Ten microliters of this reaction mixture was placed in a round bottom microtiter plate and 15 μL of virus containing supernatant was added and mixed. The plate was incubated at 37° C. in a water bath with a solid support to prevent submersion of the plate and incubated for 60 minutes. Following reaction, the reaction volume was spotted onto pieces of DE81 paper, washed 5 times for 5 minutes each in a 5% sodium phosphate buffer, 2 times for 1 minute each in distilled water, 2 times for 1 minute each in 70% ethanol, and then dried. Opti-Fluor O was added to each sample and incorporated radioactivity was quantitated utilizing a Wallace 1450 Microbetaplus liquid scintillation counter.

[3] = tested on: PBMCs; assay: Study 4 sensitization: cell viability; type: cell-based, human
Protocol: as §1, §2, §3

[4] = tested on: HIV-1
Protocol: Reverse transcriptase (RT) activity was measured in cell-free supernatants. Tritiated thymidine triphosphate (NEN) (TTP) was resuspended in distilled H2O at […]. Poly rA and oligo dT were prepared as a stock solution which was kept at −20° C. The RT reaction buffer was prepared fresh on a daily basis and consists of 125 μL 1.0 M EGTA, 125 μL d H2O, 110 μL 10% SDS, 50 μL 1.0 M Tris (pH 7.4), 50 μL 1.0 M DTT, and 40μ1.0 M MgCl2. These three solutions were mixed together in a ratio of 2 parts TTP, 1 part poly rA:oligo dT, and 1 part reaction buffer. Ten microliters of this reaction mixture was placed in a round bottom microtiter plate and 15 μL of virus containing supernatant was added and mixed. The plate was incubated at 37° C. in a water bath with a solid support to prevent submersion of the plate and incubated for 60 minutes. Following reaction, the reaction volume was spotted onto pieces of DE81 paper, washed 5 times for 5 minutes each in a 5% sodium phosphate buffer, 2 times for 1 minute each in distilled water, 2 times for 1 minute each in 70% ethanol, and then dried. Opti-Fluor O was added to each sample and incorporated radioactivity was quantitated utilizing a Wallace 1450 Microbetaplus liquid scintillation counter.
Control groups were not treated with the enzyme. The virus was then titrated on macrophage/monocyte cultures and incubated at 37° C. for 48 hours at which time the macrophages and monocytes were washed 3×, resuspended and placed in fresh wells. Naïve PBMC's were overlayed on the macrophage/monocyte cultures and incubated at 37° C. for 72 hours. The PBMC's were then separated, washed and placed in fresh wells with fresh medium and rested for 48 hours. After a 48 hour rest period, the PBMC's were challenged with HIV-1 with and without PHA, I1-2, or both. […] These various assays are presented below in Table 10 .

[5] = Assay #1, Sum over 20, 10, 5 mg/mL

## Hyaluronidase
[1]; 0.390625 μg/mL, Standard
  RT activity % VC: 50.4%
[1]; 0.390625 μg/mL, Turpin
  RT activity % VC: 69.6%
[1]; 0.78125 μg/mL, Standard
  RT activity % VC: 59.9%
[1]; 0.78125 μg/mL, Turpin
  RT activity % VC: 48.6%
[1]; 1.5625 μg/mL, Turpin
  RT activity % VC: 61.1%
[1]; 3.125 μg/mL, Standard
  RT activity % VC: 55.8%
[1]; 3.125 μg/mL, Turpin
  RT activity % VC: 45.6%
[1]; 6.25 μg/mL, Standard
  RT activity % VC: 57.7%
[1]; 6.25 μg/mL, Turpin
  RT activity % VC: 39.4%
[1]; 25 μg/mL, Standard
  RT activity % VC: 21.0%
[1]; 25 μg/mL, Turpin
  RT activity % VC: 15.5%
[1]; viability corrected, 0.097656 μg/mL, Standard
  RT activity % VC: 66.0%
[1]; viability corrected, 0.097656 μg/mL, Turpin
  RT activity % VC: 94.1%
[1]; viability corrected, 0.390625 μg/mL, Standard
  RT activity % VC: 52.2%
[1]; viability corrected, 0.78125 μg/mL, Standard
  RT activity % VC: 55.1%
[1]; viability corrected, 0.78125 μg/mL, Turpin
  RT activity % VC: 56.9%
[1]; viability corrected, 1.5625 μg/mL, Standard
  RT activity % VC: 57.0%
[1]; viability corrected, 1.5625 μg/mL, Turpin
  RT activity % VC: 69.1%
[1]; viability corrected, 3.125 μg/mL, Standard
  RT activity % VC: 53.4%
[1]; viability corrected, 3.125 μg/mL, Turpin
  RT activity % VC: 55.5%
[1]; viability corrected, 6.25 μg/mL, Standard
  RT activity % VC: 56.6%
[1]; viability corrected, 6.25 μg/mL, Turpin
  RT activity % VC: 48.5%
[1]; viability corrected, 25 μg/mL, Turpin
  RT activity % VC: 25.6%
[2]; 5 mg/mL
  % Control: 111.3%
  Mean RT: 18777.7 cpm
[2]; 10 mg/mL
  % Control: 122.2%
  Mean RT: 20614.7 cpm
[2]; 20 mg/mL
  % Control: 162.7%
  Mean RT: 27462 cpm
[2]; Sum over 20, 10, 5 mg/mL
  % Control, Sum: 396.2%
  Mean RT, Sum: 66854.4 cpm
[3]; 0.097656 μg/mL, GP120IIIB Sensitized, Standard
  cell viability % CC: 167.6%
[3]; 0.097656 μg/mL, IIIB Sensitized, Standard
  cell viability % CC: 138.2%
[3]; 0.390625 μg/mL, GP120IIIB Sensitized, Turpin
  cell viability % CC: 67.6%
[3]; 1.5625 μg/mL, GP120IIIB Sensitized, Turpin
  cell viability % CC: 73.4%
[3]; 6.25 μg/mL, GP120IIIB Sensitized, Turpin
  cell viability % CC: 73.2%
[3]; 6.25 μg/mL, IIIB Sensitized, Standard
  cell viability % CC: 133.5%
[3]; 25 μg/mL, Rojo Sensitized, Turpin
  cell viability % CC: 75.0%
[3]; Table 9, 0.097656 μg/mL, GP120IIIB Sensitized, Standard
  cell viability % CC: 167.6%
[3]; Table 9, 0.097656 μg/mL, IIIB Sensitized, Standard
  cell viability % CC: 138.2%
[3]; Table 9, 0.390625 μg/mL, GP120IIIB Sensitized, Turpin
  cell viability % CC: 67.6%
[3]; Table 9, 1.5625 μg/mL, GP120IIIB Sensitized, Turpin
  cell viability % CC: 73.4%
[3]; Table 9, 6.25 μg/mL, GP120IIIB Sensitized, Turpin
  cell viability % CC: 73.2%
[3]; Table 9, 6.25 μg/mL, IIIB Sensitized, Standard
  cell viability % CC: 133.5%
[3]; Table 9, 25 μg/mL, Rojo Sensitized, Turpin
  cell viability % CC: 75.0%
[4]; Assay #1, 5 mg/mL
  % Control: 97.3%
  Mean RT: 20882.7 cpm
[4]; Assay #1, 10 mg/mL
  % Control: 27.9%
  Mean RT: 6000 cpm
[4]; Assay #1, 20 mg/mL
  % Control: 16.9%
  Mean RT: 3635.7 cpm
[4]; [5]
  % Control, Sum: 142.1%
  Mean RT, Sum: 30518.4 cpm
[4]; Assay #2, 5 mg/mL
  % Control: 20.6%
